Results taken from article PMC7219108, “Pisum sativum Defensin 1 Eradicates Mouse Metastatic Lung Nodules from B16F10 Melanoma Cells” (International Journal of Molecular Sciences, 2020).

How the values were obtained:
[1] = tested on: HEK-293 (human embryonic kidney) cells; test: Cell viability, healthy HEK-293 cells; assay type: cell-based; settings: 3 h
[2] = Body weight of mice in the B16F10 metastasis experiment; assay type: in vivo, mouse; settings: 0.1, 1 and 3 mg/kg Psd1 i.v. with B16F10 cells, 21 days; animals with B16F10 only lost weight
Description: Figure 6 Protective effects of Psd1 on a model of experimental lung metastasis in vivo. B16F10 mouse melanoma tumors were established by intravenous injection of 2.5 × 10^5 B16F10 cells into C57BL/6 mice. (A) After 21 days, mice from each experimental group were sacrificed, and the number of visible lung metastatic nodules was quantified. Treatment of the animals inoculated with melanoma cells plus Psd1 caused a dose-dependent reduction in the number of lung metastases. Black lines represent the mean ± SEM of two independent experiments analyzed by one-way ANOVA and Bonferroni’s multiple comparison test. **** p < 0.0001 B16F10 vs. phosphate buffer solution (PBS); **** p < 0.0001 B16F10 vs. Psd1 1 mg/kg; **** p < 0.0001 B16F10 vs. just Psd1 1 mg/kg (without B16F10 cells); *** p < 0.001 B16F10 vs. Psd1 3 mg/kg; * p < 0.05 B16F10 vs. Psd1 0.5 mg/kg. (B) Representative images of lung metastatic nodules from animals that received just PBS or B16F10 cells alone or together with 0.1 mg/kg or 1 mg/kg Psd1. Bar = 2 mm. (C) Animal weights were acquired every two days. Weight variation was calculated as (weight on that day (weight of the first day × 100 − 100)). Only the days with higher weight differences between animals injected with only B16F10 cells and those that received cells plus Psd1 or PBS alone are represented. […]

[3] = cited from earlier work
Description: (§1) The mechanism of action proposed for Psd1 antifungal activity includes its interaction with specific cell wall/membrane lipid targets, such as C8-desaturated and C9-methylated glucosylceramide (GlcCer), a fungal exclusive GSL, and ergosterol.

several fungal species = settings: cited from earlier work
Description: as §1

In the case of “Psd1: 46-amino acid residue plant defensin isolated from pea seeds, expressed in Pichia pastoris (PDB 1JKZ) (KTCEHLADTYRGVCFTNASCDDHCKNKAHLISGTCHNWKCFCTQNC)”, the HEK-293 cell viability [1] is listed as “no alteration in cell viability”, the Body weight [2] is listed as “gained weight throughout the assay” and the “Affinity to cholesterol-enriched lipid bilayers” value [3] is listed as “does not show good affinity”. The “Antimicrobial activity against fungi” value (several fungal species) was “well-documented antimicrobial activity against several fungal species”.
